Data: patent US20080268533A1, “Methods and Compositions Utilizing Myc and Gsk3Beta to Manipulate the Pluripotency of Embryonic Stem Cells” (University of Georgia Research Foundation, Inc., priority 2004, published 2008)

How the values were obtained:
myc^Δ40-178ER cells = assay: AP activity of dominant negative myc^Δ40-178ER cells with 4OHT; type: cell-based, mouse; conditions: +LIF, 4OHT (25 nM), 6-day period, 92% at start
Description: While ES cell colonies with a typical domed-shape morphology could be maintained in the presence of LIF and in the absence of 4OHT over extended periods (>30 days), upon addition of 4OHT myc^Δ40-178ER cells changed morphology within several days, similar to that seen in spontaneously differentiating cells (data not shown). This coincided with down-regulation of specific transcripts associated with pluripotency such as Nanog and Oct4 together with the upregulation of early mesoderm (brachyury) and neuroectoderm (Sox1) transcripts (FIG. 10A). These trends were confirmed by AP activity assays in which the percentage of AP positive colonies declined from 92% to 45% over a 6-day period in the presence of 4OHT (FIG. 10B). […] This is consistent with the results showing that c-myc has a role in self-renewal and maintenance of pluripotency.

mycER ES cells = assay: AP activity of mycER ES cells with 4OHT; type: cell-based, mouse
Experimental: In the presence of 4OHT (mycER on), ES cells retained a uniform dome-shaped colony morphology (FIG. 1B), similar to that of LIF maintained cells (data not shown). In contrast, withdrawal of 4OHT promoted a distinct flattening of colonies with a less uniform appearance (FIG. 1C) that correlated with ES cells undergoing differentiation in the absence of LIF (data not shown). The ability of c-myc to promote ES cell self-renewal was confirmed in a LIF titration assay where mycER ES cells were grown in the presence or absence of 4OHT for 6 days in media containing LIF over a range of 0-1×10^3 units per ml and then assayed for AP activity. […] MycER cells were then grown in the presence or absence of 4OHT in the absence of LIF for up to 15 days and assayed for AP activity. […] Including low levels of LIF (7.5 units/ml), that by itself had only a small effect on maintaining AP levels over 15 days, appeared to further delay the loss of AP activity in mycER cells grown with 4OHT.

[1] = tested on: hES BG01 cell lines transfected with c-myc^T58AER; type: cell-based
Experimental: To address this question in hESCs, clonal hES BG01 cell lines transfected with a human c-myc^T58AER gene fusion were generated, identical to that used in the previous mESC studies.
To establish a role for c-myc in HESC self-renewal, c-myc activity was enforced by the addition of 4OHT. This experiment was performed to determine whether c-myc could maintain normal HESC growth and morphology on Matrigel for a period of approximately 15 days (3 passages) in the absence of MEF-CM and bFGF, conditions where spontaneous differentiation would be anticipated. Uninduced (−40HT) cells overtly differentiated after approximately 5-6 days in a manner closely resembling untransfected hESCs when grown in the absence of MEF-CM and bFGF on Matrigel, as judged by changes in cell/colony morphology, increased cell spreading, and a reduction in cell packing density (FIGS. 11B and C and data not shown). The cell lines were also analyzed by immunoblot analysis, evaluating levels of c-myc^T58AER, c-myc, and cdk2 (FIG. 11A).
Alkaline phosphatase (AP) activity was used as a read-out to assess whether c-myc maintained hESCs were still pluripotent. 67% of colonies grown with 4OHT were AP positive in contrast to −4OHT cells where only 4% were positive after a 15 day period (FIG. 11D and data not shown). As in mouse ES cells, elevated c-myc activity caused significant cell death (data not shown).

myc^T58AER cells = conditions: 4OHT (−LIF) versus LIF maintained cells, 14-day period
Experimental: For long-term maintenance, mycER and myc^T58AER mouse ES cells were grown in ES complete media supplemented with 4-hydroxytomoxifen (4OHT) (100 nM or 2-10 nM, respectively) and re-fed every second day. For differentiation of ES cells as embryoid bodies (EB), cells were trypsinized and replated on bacteriological dishes at 1.6×10^5 cells/cm^2 and grown in ESC media (−LIF) plus or minus 4OHT to allow for EB formation. Cells were re-fed every second day and expanded after 4 days of culture. mycER cells were passaged by limited trypsinization, avoiding generation of single cell suspensions. AP activity was assayed with Alkaline Phosphatase Substrate Kit I (Vector Laboratories) according to the manufacturers' instructions. LIF titration assays were performed over a range of 0 to 1×10^3 units ESGRO per ml in the presence or absence of 4OHT by plating cells in 24 well plates.

vector alone cell lines = assay: Self-renewal of vector alone ES cell lines with 4OHT; type: cell-based, mouse; conditions: absence of LIF
Description: Furthermore, authentic c-myc could maintain self-renewal in a similar manner to mycER fusions when expressed constitutively, independently of 4OHT (data not shown).

Question: What does the source list for `CC/C(=C(\c1ccc(O)cc1)c1ccc(OCCN(C)C)cc1)c1ccccc1` [4OHT, 4-hydroxytomoxifen]?
Answer: percentage of AP positive colonies (myc^Δ40-178ER cells): 45%; AP activity (positive) (mycER ES cells; mycER cells grown in 4OHT, 6 days, entire LIF titration range 0-1×10^3 units per ml): > 90%; AP activity (mycER ES cells; mycER cells, 14 days, −LIF, in the presence of 4OHT): significantly reduced; highest concentration of drug that did not promote c-myc-dependent cell death (optimal) ([1]; 4OHT titration, c-myc^T58AER BG01 cell line): 1 to 5 nM; colonies AP positive ([1]; c-myc^T58AER hESCs grown with 4OHT, Matrigel, no MEF-CM and bFGF, 15 day period): 67%; AP activity (myc^T58AER cells): comparable between LIF maintained cells and those grown in the presence of 4OHT; self-renewal (vector alone cell lines): did not promote self-renewal
